Target: T1, CCK2 receptor (Homo sapiens, UniProt P32239)
T1 construct: Membranes were prepared from the HEKZFP cells after induction; endogenous in cells; host or cells: HEKZFP cells (T-REx-293 with tet-inducible ZFP-VP16 specific for the CCK2R gene), doxycycline-induced; membrane preparation
T1 sequence (P32239 1-447): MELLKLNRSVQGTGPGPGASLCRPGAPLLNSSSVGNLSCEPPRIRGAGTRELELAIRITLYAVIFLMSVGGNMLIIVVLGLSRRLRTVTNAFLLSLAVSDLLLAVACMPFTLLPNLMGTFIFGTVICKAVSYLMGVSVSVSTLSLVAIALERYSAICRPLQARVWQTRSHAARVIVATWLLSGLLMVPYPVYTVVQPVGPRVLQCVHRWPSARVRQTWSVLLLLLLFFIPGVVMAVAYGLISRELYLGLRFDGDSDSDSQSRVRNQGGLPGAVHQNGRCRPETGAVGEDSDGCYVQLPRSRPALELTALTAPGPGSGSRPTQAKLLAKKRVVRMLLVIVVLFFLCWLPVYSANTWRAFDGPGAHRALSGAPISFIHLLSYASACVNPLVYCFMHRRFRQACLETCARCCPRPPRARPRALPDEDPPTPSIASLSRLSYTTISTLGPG
Experiment: CCK2 receptor radioligand binding assay ([125I]-BH-CCK-8S, HEKZFP cell membranes)
Conditions: competition with [125I]-BH-CCK-8S, membranes of induced HEKZFP cells, 60 min at 21±3° C., Cheng-Prusoff
Description: Zinc Finger Proteins (ZFP) specific for the CCK2R gene were identified by Sangamo Biosciences. The ZFP domain was fused with the herpes simplex virus VP16 activation domain, and the fusion protein was subsequently cloned into the pcDNA3 mammalian expression vector (Invitrogen, San Diego, Calif.). […] After 2 weeks of selection in culture medium containing […] Zeocin (Invitrogen), sixty drug-resistant stable clones were isolated and analyzed for ZFP expression as well as CCK2R induction upon addition of doxycycline to the culture medium.
HEKZFP cells were grown in DMEM supplemented with L-glutamine (2 mM), penicillin (50 units/mL) and streptomycin (50 μg/mL) and 10% FBS (v/v).
Membranes were prepared from the HEKZFP cells after induction. […] The thawed pellets were homogenized using a Polytron PT-10 (7×1 s). The homogenates were centrifuged for 5 min at 1500 rpm (600×g), and the resulting pellets were discarded. The supernatants were re-centrifuged in order to collect the receptor-membrane pellets (25 min 15,000 rpm; 39,800×g), which were re-suspended in buffer A.
The assay preparation was incubated for 1 h at 21±3° C., and then the assay was terminated by rapid filtration of the preparation under reduced pressure. The loaded filters were washed three times using undiluted PBS (100 μL), and then 100 μL of scintillation fluid was added to the filter plate. Bound radioactivity was determined using a Topcount (Packard BioScience, Meriden, Conn.) with a count time of 1 min. […] To validate the radioligand concentration and incubation time for the assay, saturation and kinetic binding studies were also conducted (see M. F. Morton, The Pharmacological Characterization of Cholecystokinin Receptors in the Human Gastrointestinal Tract. PhD Thesis, University of London, 2000). […] The assay was then terminated according to the procedure outlined above.
The pKi values were determined using the equation of Y.-C.
To circumvent problems associated with computer-assisted data analysis of compounds with low affinity, the data obtained in the current study were weighed according to a method described by Morton. In brief, 100% and 0% specific binding were defined independently using total binding and binding obtained in the presence of a high concentration of the reference antagonist, 2-NAP.

**Q.** For C[C@H](c1ccccc1)N(C)C(=O)c1ccc(Br)cc1NS(=O)(=O)c1cccc2nccnc12 [Example 33, (R)-4-Bromo-N-methyl-N-(1-phenyl-ethyl)-2-(quinoxaline-5-sulfonylamino)-benzamide], which Ki is on record?
**A.** 12.6 nM

**Q.** With C[C@H](c1ccccc1)N(C)C(=O)c1ccc(I)cc1NS(=O)(=O)c1cccc2nccnc12 [Example 34, (R)-4-Iodo-N-methyl-N-(1-phenyl-ethyl)-2-(quinoxaline-5-sulfonylamino)-benzamide] as the molecule, how does the Ki read?
**A.** 7.94 nM

**Q.** How did the Ki turn out when CN(Cc1ccc(F)cc1)C(=O)c1ccc(I)cc1NS(=O)(=O)c1cccc2nccnc12 [Example 35, N-(4-Fluorobenzyl)-4-iodo-N-methyl-2-(quinoxaline-5-sulfonylamino)-benzamide] was run?
**A.** 15.8 nM

**Q.** C[C@@H](NC(=O)c1ccc(C(F)(F)F)cc1NS(=O)(=O)c1cccc2nccnc12)c1ccc(F)cc1F [Example 36, (R)—N-[1-(2,4-Difluorophenyl)ethyl]-2-(quinoxaline-5-sulfonylamino)-4-trifluoromethylbenzamide] was tested. Which Ki did it give?
**A.** 25.1 nM

**Q.** Which Ki does the source give for C[C@@H](NC(=O)c1ccc(F)cc1NS(=O)(=O)c1cccc2nccnc12)c1ccc(Cl)cc1Cl [Example 37, (R)—N-[1-(2,4-Dichlorophenyl)-ethyl]-4-fluoro-2-(quinoxaline-5-sulfonylamino)-benzamide] here?
**A.** 200 nM

**Q.** Which Ki does the source give for C[C@@H](NC(=O)c1ccc(C#N)cc1NS(=O)(=O)c1cccc2nccnc12)c1ccc(F)cc1F [Example 38, (R)-4-Cyano-N-[1-(2,4-difluoro-phenyl)ethyl]-2-(quinoxaline-5-sulfonylamino)-benzamide] here?
**A.** 316 nM

**Q.** O=C(c1ccc(Br)cc1NS(=O)(=O)c1cccc2nccnc12)N1CCOc2cc(F)ccc2C1 [Example 39, Quinoxaline-5-sulfonic acid [5-bromo-2-(8-fluoro-2,3-dihydro-5H-benzo[f][1,4]oxazepine-4-carbonyl)phenyl]-amide] was tested. Which Ki did it give?
**A.** 79.4 nM

**Q.** With O=C(c1ccc(Cl)cc1NS(=O)(=O)c1cccc2nccnc12)N1CCOc2cc(F)cc(F)c2C1 [Example 40, Quinoxaline-5-sulfonic acid [5-chloro-2-(6,8-difluoro-2,3-dihydro-5H-benzo[f][1,4]oxazepine-4-carbonyl)-phenyl]-amide] as the molecule, how does the Ki read?
**A.** 251 nM

**Q.** How did the Ki turn out when CN(Cc1ccccc1)C(=O)c1ccc(I)cc1NS(=O)(=O)c1cccc2nccnc12 [Example 42, N-Benzyl-4-iodo-N-methyl-2-(quinoxaline-5-sulfonylamino)-benzamide] was run?
**A.** 25.1 nM

**Q.** C[C@@H](NC(=O)c1ccc(Cl)cc1NS(=O)(=O)c1cccc2nccnc12)c1ccc(Cl)cc1Cl [Example 43, (R)-4-Chloro-N-[1-(2,4-dichloro-phenyl)-ethyl]-2-(quinoxaline-5-sulfonylamino)-benzamide] was tested. Which Ki did it give?
**A.** 10 nM

**Q.** How did the Ki turn out when CN(Cc1ccc(F)cc1)C(=O)c1ccc(Br)cc1NS(=O)(=O)c1cccc2nccnc12 [Example 45, 4-Bromo-N-(4-fluoro-benzyl)-N-methyl-2-(quinoxaline-5-sulfonylamino)-benzamide] was run?
**A.** 31.6 nM

**Q.** CN(Cc1ccc(Cl)cc1)C(=O)c1ccc(I)cc1NS(=O)(=O)c1cccc2nccnc12 [Example 48, N-(4-Chloro-benzyl)-4-iodo-N-methyl-2-(quinoxaline-5-sulfonylamino)-benzamide] was tested. Which Ki did it give?
**A.** 20 nM

**Q.** For CC(NC(=O)c1ccc(Br)cc1NS(=O)(=O)c1cccc2nccnc12)c1ccc(Cl)cc1 (stereo not drawn) [Example 50, 4-Bromo-N-[1-(4-chloro-phenyl)-ethyl]-2-(quinoxaline-5-sulfonylamino)-benzamide], which Ki is on record?
**A.** 63.1 nM

**Q.** CC(NC(=O)c1ccc(Br)cc1NS(=O)(=O)c1cccc2nccnc12)c1ccc(F)cc1 (stereo not drawn) [Example 53, 4-Bromo-N-[1-(4-fluoro-phenyl)-ethyl]-2-(quinoxaline-5-sulfonylamino)-benzamide] was tested. Which Ki did it give?
**A.** 25.1 nM

**Q.** With CC(NC(=O)c1ccc(I)cc1NS(=O)(=O)c1cccc2nccnc12)c1ccc(F)cc1 (stereo not drawn) [Example 54, N-[1-(4-Fluoro-phenyl)-ethyl]-4-iodo-2-(quinoxaline-5-sulfonylamino)-benzamide] as the molecule, how does the Ki read?
**A.** 39.8 nM

**Q.** For O=C(NCc1ccc(F)cc1F)c1ccc(I)cc1NS(=O)(=O)c1cccc2nccnc12 [Example 57, N-(2,4-Difluoro-benzyl)-4-iodo-2-(quinoxaline-5-sulfonylamino)-benzamide], which pKi is on record?
**A.** 7.4

**Q.** With O=C(NCc1ccc(Cl)cc1Cl)c1ccc(Cl)cc1NS(=O)(=O)c1cccc2nccnc12 [Example 58, 4-Chloro-N-(2,4-dichloro-benzyl)-2-(quinoxaline-5-sulfonylamino)-benzamide] as the molecule, how does the Ki read?
**A.** 63.1 nM

**Q.** Which Ki does the source give for O=C(NCc1ccc(F)cc1Cl)c1ccc(Cl)cc1NS(=O)(=O)c1cccc2nccnc12 [Example 61, 4-Chloro-N-(2-chloro-4-fluoro-benzyl)-2-(quinoxaline-5-sulfonylamino)-benzamide] here?
**A.** 39.8 nM

**Q.** With C[C@H](c1ccccc1)N(C)C(=O)c1ccc(Cl)cc1NS(=O)(=O)c1cccc2nccnc12 [Example 62, (R)-4-Chloro-N-methyl-N-(1-phenyl-ethyl)-2-(quinoxaline-5-sulfonylamino)-benzamide] as the molecule, how does the Ki read?
**A.** 15.8 nM

**Q.** For C[C@@H](NC(=O)c1ccc(I)cc1NS(=O)(=O)c1cccc2nccnc12)c1ccc(F)cc1 [Example 63, (R)-N-[1-(4-Fluoro-phenyl)-ethyl]-4-iodo-2-(quinoxaline-5-sulfonylamino)-benzamide], which Ki is on record?
**A.** 31.6 nM

**Q.** For C[C@@H](NC(=O)c1ccc(I)cc1NS(=O)(=O)c1cccc2nccnc12)c1ccc(Cl)cc1Cl [Example 64, (R)-N-[1-(2,4-Dichloro-phenyl)-ethyl]-4-iodo-2-(quinoxaline-5-sulfonylamino)-benzamide], which Ki is on record?
**A.** 25.1 nM

**Q.** With C[C@H](NC(=O)c1ccc(I)cc1NS(=O)(=O)c1cccc2nccnc12)c1ccc(Cl)cc1Cl [Example 66, (S)-N-[1-(2,4-Dichloro-phenyl)-ethyl]-4-iodo-2-(quinoxaline-5-sulfonylamino)-benzamide] as the molecule, how does the Ki read?
**A.** 50.1 nM

**Q.** How did the Ki turn out when O=C(N[C@H](CF)c1ccc(F)cc1)c1ccc(Br)cc1NS(=O)(=O)c1cccc2nccnc12 [Example 71, (S)-4-Bromo-N-[2-fluoro-1-(4-fluoro-phenyl)-ethyl]-2-(quinoxaline-5-sulfonylamino)-benzamide] was run?
**A.** 79.4 nM

**Q.** How did the Ki turn out when O=C(N[C@H](CF)c1ccc(F)cc1)c1ccc(Cl)cc1NS(=O)(=O)c1cccc2nccnc12 [Example 72, (S)-4-Chloro-N-[2-fluoro-1-(4-fluoro-phenyl)-ethyl]-2-(quinoxaline-5-sulfonylamino)-benzamide] was run?
**A.** 100 nM

**Q.** How did the Ki turn out when O=C(N[C@H](CF)c1ccc(F)cc1)c1ccc(I)cc1NS(=O)(=O)c1cccc2nccnc12 [Example 73, (S)-N-[2-Fluoro-1-(4-fluoro-phenyl)-ethyl]-4-iodo-2-(quinoxaline-5-sulfonylamino)-benzamide] was run?
**A.** 79.4 nM

**Q.** O=C(NC(CF)c1ccc(F)cc1F)c1ccc(Br)cc1NS(=O)(=O)c1cccc2nccnc12 (stereo not drawn) [Example 74, 4-Bromo-N-[1-(2,4-difluoro-phenyl)-2-fluoro-ethyl]-2-(quinoxaline-5-sulfonylamino)-benzamide] was tested. Which Ki did it give?
**A.** 31.6 nM

**Q.** With O=C(NC(CF)c1ccc(F)cc1F)c1ccc(I)cc1NS(=O)(=O)c1cccc2nccnc12 (stereo not drawn) [Example 75, N-[1-(2,4-Difluoro-phenyl)-2-fluoro-ethyl]-4-iodo-2-(quinoxaline-5-sulfonylamino)-benzamide] as the molecule, how does the Ki read?
**A.** 63.1 nM

**Q.** For O=C(N[C@H](CF)c1ccc(F)cc1F)c1ccc(Br)cc1NS(=O)(=O)c1cccc2nccnc12 [Example 76, (S)-4-Bromo-N-[1-(2,4-difluoro-phenyl)-2-fluoro-ethyl]-2-(quinoxaline-5-sulfonylamino)-benzamide], which Ki is on record?
**A.** 25.1 nM

**Q.** Which Ki does the source give for O=C(N[C@H](CF)c1ccc(F)cc1F)c1ccc(I)cc1NS(=O)(=O)c1cccc2nccnc12 [Example 77, (S)-N-[1-(2,4-Difluoro-phenyl)-2-fluoro-ethyl]-4-iodo-2-(quinoxaline-5-sulfonylamino)-benzamide] here?
**A.** 50.1 nM

**Q.** For O=C(N[C@H](CF)c1ccc(F)cc1F)c1ccc(Cl)cc1NS(=O)(=O)c1cccc2nccnc12 [Example 78, (S)-4-Chloro-N-[1-(2,4-difluoro-phenyl)-2-fluoro-ethyl]-2-(quinoxaline-5-sulfonylamino)-benzamide], which Ki is on record?
**A.** 39.8 nM
